For data set [1], the target named is T1, Interleukin-1 receptor-associated kinase 4 (Homo sapiens, UniProt Q9NWZ3).
T1 sequence (Q9NWZ3 whole entry): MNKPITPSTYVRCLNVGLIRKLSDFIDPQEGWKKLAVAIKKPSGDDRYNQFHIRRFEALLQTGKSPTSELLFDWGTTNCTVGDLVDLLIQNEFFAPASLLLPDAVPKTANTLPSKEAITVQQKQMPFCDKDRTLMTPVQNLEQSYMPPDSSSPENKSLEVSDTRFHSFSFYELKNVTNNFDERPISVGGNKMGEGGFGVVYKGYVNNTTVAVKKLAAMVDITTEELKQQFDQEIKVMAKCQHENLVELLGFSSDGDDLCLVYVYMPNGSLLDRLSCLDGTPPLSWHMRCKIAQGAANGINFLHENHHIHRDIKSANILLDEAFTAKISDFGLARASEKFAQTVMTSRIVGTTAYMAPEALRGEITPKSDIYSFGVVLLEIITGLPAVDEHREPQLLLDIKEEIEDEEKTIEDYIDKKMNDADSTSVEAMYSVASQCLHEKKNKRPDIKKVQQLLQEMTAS
As to the kind of experiment: Inhibition of IRAK4.

Another data set concerns PBMC. As to the kind of experiment: Inhibition of LPS-induced TNFalpha release in human PBMC cells. The data set is classed as functional.
The nature of data set [2]: Intrinsic clearance in rat microsomes at 0.5 uM. The data set is classed as ADME, Microsome.
In another data set the target is Cytochrome P450 3A4 (Homo sapiens, UniProt P08684). As to the kind of experiment: Inhibition of CYP3A4. Type of data set: ADME. Details: concentration or dose not given beside the values.
A further data set deals with Cytochrome P450 2D6 (Homo sapiens, UniProt P10635). As to the kind of experiment: Inhibition of CYP2D6. The data set is classed as ADME.
Data set [3] deals with Interleukin-1 receptor-associated kinase 1 (Homo sapiens, UniProt P51617). As to the kind of experiment: Inhibition of IRAK1.
Data set [4] can be described thus: Intrinsic clearance in human microsomes at 0.5 uM. Type of data set: ADME, Microsome.
Data set [5] addresses T2, Interleukin-1 receptor-associated kinase 4 (Homo sapiens) (UniProt Q9NWZ3).
T2 sequence (whole entry): T1 sequence (Q9NWZ3 whole entry)
As to the kind of experiment: Inhibition of IRAK4 at 10 uM.

Data set [6] has as its target T3, CYP2D6 (Homo sapiens, UniProt P10635). As to the kind of experiment: Inhibition of CYP2D6 at 10 uM. The data set is classed as ADME.
Data set [7] deals with T3, CYP2D6. As to the kind of experiment: Inhibition of CYP2D6 at 50 uM. Type of data set: ADME.

In general, IC50 refers to the point on the concentration scale where inhibition reaches its midpoint. As usually defined, the microsomal CLint is the rate of metabolic loss divided by the concentration. What is called Inhibition is the drop in the measured response relative to a control, in per cent. Broadly, the inhibition is the change of the read-out against control, counted positive when it falls.

Sequence of Cytochrome P450 2D6 (P10635 whole entry): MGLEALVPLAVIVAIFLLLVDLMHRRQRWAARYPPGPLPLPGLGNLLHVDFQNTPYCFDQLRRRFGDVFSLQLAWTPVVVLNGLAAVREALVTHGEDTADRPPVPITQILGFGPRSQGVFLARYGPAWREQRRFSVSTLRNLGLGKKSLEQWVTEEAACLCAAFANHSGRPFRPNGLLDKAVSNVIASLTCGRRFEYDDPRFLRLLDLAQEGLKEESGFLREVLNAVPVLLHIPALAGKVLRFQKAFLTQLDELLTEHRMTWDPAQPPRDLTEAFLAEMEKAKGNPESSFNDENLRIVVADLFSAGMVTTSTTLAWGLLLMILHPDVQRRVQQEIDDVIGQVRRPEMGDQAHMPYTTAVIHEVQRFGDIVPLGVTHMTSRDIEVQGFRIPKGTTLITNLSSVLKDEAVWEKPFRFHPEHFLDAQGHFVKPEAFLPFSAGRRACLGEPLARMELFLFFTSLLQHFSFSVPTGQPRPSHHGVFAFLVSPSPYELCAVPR
Sequence of Cytochrome P450 3A4 (P08684 whole entry): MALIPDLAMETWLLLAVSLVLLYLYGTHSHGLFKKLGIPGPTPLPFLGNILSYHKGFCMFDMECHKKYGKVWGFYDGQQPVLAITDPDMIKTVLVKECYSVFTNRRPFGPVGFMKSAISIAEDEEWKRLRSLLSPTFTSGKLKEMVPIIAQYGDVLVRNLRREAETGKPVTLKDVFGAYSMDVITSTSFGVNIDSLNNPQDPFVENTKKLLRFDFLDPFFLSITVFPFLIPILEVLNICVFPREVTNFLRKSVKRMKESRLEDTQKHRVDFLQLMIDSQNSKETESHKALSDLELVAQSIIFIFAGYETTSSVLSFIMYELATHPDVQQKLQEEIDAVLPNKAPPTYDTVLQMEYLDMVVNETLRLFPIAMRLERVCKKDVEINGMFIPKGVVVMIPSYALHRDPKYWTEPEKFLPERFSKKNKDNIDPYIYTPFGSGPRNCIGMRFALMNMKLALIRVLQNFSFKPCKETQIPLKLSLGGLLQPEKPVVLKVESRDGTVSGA
Sequence of Interleukin-1 receptor-associated kinase 1 (P51617 whole entry): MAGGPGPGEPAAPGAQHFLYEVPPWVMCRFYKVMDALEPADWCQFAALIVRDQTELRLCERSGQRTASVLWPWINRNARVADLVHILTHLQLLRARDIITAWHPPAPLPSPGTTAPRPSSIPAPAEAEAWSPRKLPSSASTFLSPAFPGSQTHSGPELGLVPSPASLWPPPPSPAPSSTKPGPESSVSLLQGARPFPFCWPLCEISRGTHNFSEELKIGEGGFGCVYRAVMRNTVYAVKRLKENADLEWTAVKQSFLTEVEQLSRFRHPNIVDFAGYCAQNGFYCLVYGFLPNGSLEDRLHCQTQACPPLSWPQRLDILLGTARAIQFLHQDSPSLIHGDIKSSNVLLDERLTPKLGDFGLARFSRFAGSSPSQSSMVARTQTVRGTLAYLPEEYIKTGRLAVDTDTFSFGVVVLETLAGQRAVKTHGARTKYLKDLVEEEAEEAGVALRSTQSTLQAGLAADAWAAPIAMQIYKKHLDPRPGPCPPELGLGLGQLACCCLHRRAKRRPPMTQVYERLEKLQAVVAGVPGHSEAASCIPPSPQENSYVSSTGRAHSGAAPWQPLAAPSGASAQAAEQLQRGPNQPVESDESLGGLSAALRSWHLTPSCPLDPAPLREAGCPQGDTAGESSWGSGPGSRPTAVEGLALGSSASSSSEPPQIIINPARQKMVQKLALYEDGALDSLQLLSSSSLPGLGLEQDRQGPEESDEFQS
T3 sequence (P10635 whole entry): as the sequence (P10635 whole entry) above

In turn, `COc1ccc(-c2ccc3ncc(-c4cccc(NC5CCNCC5)n4)n3c2)cn1` showed a concentration for half-maximal inhibition (IC50) in [1] of 8 nM.

Regarding `c1cc(NC2CCNC2)nc(-c2cnc3ccccn23)c1` (racemic), in data set [1], 545 nM corresponded to half-maximal inhibition (IC50).

`N#Cc1ccc2ncc(-c3cccc(N[C@@H]4CCCNC4)n3)n2c1` returned an IC50 in data set [1] of 95 nM.

In the data set with PBMC, `Clc1ccc2ncc(-c3cccc(NC4CCCNC4)n3)n2c1` (racemic) came in with an Activity of 65 nM. Besides, the results for the microsomal CLint at 0.5 µM in data set [2] and in [4] were 78.1 µL/min/mg and 29.5 µL/min/mg, respectively. Further, the Inhibition is 8.6% on Cytochrome P450 3A4 and 1.8% at Cytochrome P450 2D6. In addition, in data set [3], the IC50 worked out at 175000 nM.

The molecule `Cn1cc(-c2ccc3ncc(-c4cccc(NC5CCNCC5)n4)n3c2)cn1` yielded an IC50 in [1] of 7 nM.

As for `c1cc(NC2CCNCC2)nc(-c2cnc3ccc(-c4ccc[nH]4)cn23)c1`, the IC50 in data set [1] came to 63 nM.

The molecule `Cc1ccc2ncn(-c3cccc(NC4CCNCC4)n3)c2c1` gave a half-inhibitory concentration (IC50) in [1] of 10 nM.

Regarding `c1cc(NC2CNC2)nc(-c2cnc3ccccn23)c1`, 39 nM corresponded to half-maximal inhibition in [1] (IC50).

With `c1ccc(Nc2cccc(-c3cnc4ccccn34)n2)cc1`, the IC50 in [1] is 1160 nM.

`c1cc(NCC2CCNCC2)nc(-c2cnc3ccccn23)c1` had an IC50 in data set [1] of 3030 nM.

`NC(=O)c1ccc2ncc(-c3cccc(NC4CCNCC4)n3)n2c1` registered an IC50 in data set [1] of 5 nM.

In [1], `COc1ccc2ncn(-c3cccc(NC4CCNCC4)n3)c2c1` displayed a 50% inhibitory concentration (IC50) of 15 nM.

In turn, `COc1cc2ncn(-c3cccc(NC4CCNCC4)n3)c2cc1OC` returned an IC50 in [1] of 181 nM.

In data set [1], `NC1CCCN(c2cccc(-c3cnc4ccccn34)n2)C1` (racemic) yielded a 50% inhibitory concentration (IC50) of 535 nM.

`CN(C)CCCNc1cccc(-c2cnc3ccccn23)n1`: in [1], the IC50 is 8100 nM.

In data set [1], `Cc1ccc2c(c1)ncn2-c1cccc(NC2CCNCC2)n1` showed a half-maximal inhibitory concentration (IC50) of 1080 nM.

As for `COc1ccc2c(c1)ncn2-c1cccc(NC2CCNCC2)n1`, 208 nM corresponded to half-maximal inhibition in data set [1] (IC50).

`Cn1nccc1Nc1cccc(-c2cnc3ccccn23)n1` had a half-inhibitory concentration (IC50) in [1] of 1130 nM.

Turning to `N#Cc1ccccc1Nc1cccc(-c2cnc3ccccn23)n1`, the midpoint of inhibition in [1], the IC50, lay at 433 nM.

Molecule `CN(C)C(=O)c1ccc2ncc(-c3cccc(NC4CCNCC4)n3)n2c1` had a 50% inhibitory concentration (IC50) in data set [1] of 49 nM.

As to `N#Cc1ccc(Nc2cccc(-c3cnc4ccccn34)n2)cc1`, the inhibition in [5] came out at 12%.

Take `c1cc(-c2cnc3ccccn23)nc(N2C[C@H]3C[C@@H]2CN3)c1`: the IC50 in [1] came out at 126 nM.

In [1], `NCCCNc1cccc(-c2cnc3ccccn23)n1` yielded a 50% inhibitory concentration (IC50) of 1300 nM.

On to `c1cc(NC2C[C@H]3CC[C@@H](C2)N3)nc(-c2cnc3ccccn23)c1` (stereo partly drawn), for which the IC50 in data set [1] worked out at 225 nM.

`Clc1ccc2c(c1)ncn2-c1cccc(NC2CCNCC2)n1` displayed an IC50 in [1] of 112 nM.

As to `Clc1ccc2ncc(-c3cccc(NC4CCNC4)n3)n2c1` (racemic), the Activity in the data set with PBMC came to 16 nM. The figures for the intrinsic metabolic clearance (microsomal CLint) at 0.5 µM in data set [2] and in data set [4] were 49.3 µL/min/mg and 19.2 µL/min/mg, respectively. For the same molecule, the Inhibition on Cytochrome P450 3A4 was determined as 12%; at Cytochrome P450 2D6, 15%. In addition, the IC50 in data set [1] was determined as 1 nM; in data set [3], 23000 nM.

In turn, `CN1[C@@H]2CC[C@H]1CC(Nc1cccc(-c3cnc4ccccn34)n1)C2` (stereo partly drawn) displayed an IC50 in data set [1] of 914 nM.

Turning to `c1cc(N[C@H]2CCCNC2)nc(-c2cnc3ccccn23)c1`, it took 19 nM to reach half-maximal inhibition in [1] (IC50).

`N#Cc1ccc2ncc(-c3cccc(NC4CCNCC4)n3)n2c1` came in with an Activity with PBMC of 200 nM. For the same molecule, the microsomal CLint at 0.5 µM in [2] stood at 39.9 µL/min/mg; in [4], 8.3 µL/min/mg. For the same molecule, the results for the Inhibition at Cytochrome P450 3A4 and at Cytochrome P450 2D6 were 22% and 42%, respectively. Besides, the concentration for half-maximal inhibition (IC50) was 4 nM in data set [1] and 96000 nM in [3].

In turn, `Clc1cc2ncn(-c3cccc(NC4CCNCC4)n3)c2cc1Cl` had an IC50 in data set [1] of 166 nM.

In turn, `O=C(c1ccc2ncc(-c3cccc(NC4CCNCC4)n3)n2c1)N1CCOCC1` returned an IC50 in data set [1] of 263 nM.

For the molecule `Clc1ccc2ncn(-c3cccc(NC4CCNCC4)n3)c2c1`, in data set [1], the IC50 was found to be 3 nM.

`Clc1ccc2ncc(-c3cccc(NC4CNC4)n3)n2c1`: the Activity with PBMC was found to be 54 nM. Also, the Inhibition on Cytochrome P450 3A4 came out at 11%. The IC50 in data set [1] was 6 nM; in [3], 195000 nM. The molecule further came in with an inhibition at 10 µM at CYP2D6 [6] of 21%. Also, the intrinsic clearance (microsomal CLint) at 0.5 µM in [4] was 13 µL/min/mg.

With `c1cc(-c2cnc3ccccn23)nc(N2CCCNCC2)c1`, in data set [1], 487 nM corresponded to half-maximal inhibition (IC50).

In turn, `NC1CCN(c2cccc(-c3cnc4ccccn34)n2)CC1` came in with an IC50 in data set [1] of 1880 nM.

For the molecule `COc1ccc2ncc(-c3cccc(NC4CNC4)n3)n2c1`, the IC50 in data set [1] turned out to be 7 nM.

For `c1cc(NC2CCNCC2)nc(-c2cnc3ccc(-c4cc[nH]n4)cn23)c1`, the concentration for half-maximal inhibition (IC50) in data set [1] is 2 nM.

`Cn1cnc(CNc2cccc(-c3cnc4ccccn34)n2)c1` registered a concentration for half-maximal inhibition (IC50) in data set [1] of 497 nM.

With `COc1ccc2ncc(-c3cccc(NC4CCNCC4)n3)n2c1`, the Activity with PBMC is recorded as 220 nM. The microsomal CLint at 0.5 µM amounted to 5.3 µL/min/mg in data set [2] and 19.5 µL/min/mg in [4]. Besides, the Inhibition on Cytochrome P450 3A4 was found to be 31%. The IC50 is 6 nM in data set [1] and 293000 nM in [3]. Besides, on CYP2D6 [7], the inhibition at 50 µM amounted to 41%.

Turning to `c1cc(NCC2CCCN2)nc(-c2cnc3ccccn23)c1` (racemic), the IC50 in [1] is 313 nM.
